The term IC50 denotes the concentration needed to halve the response being measured. A low value points to higher potency.

Data on 2 molecules can be found in patent US6420387B1, “Farnesyl protein transferase inhibiting (imidazol-5-yl) methyl-2-quinolinone derivatives” (Janssen Pharmaceutica N.V., priority 1995, dated 2002).

Molecules are shown by their SMILES. Structures can show the parent of a compound that is named as a salt.

For experiment [1], the target named is T1, Human farnesyl protein transferase (Homo sapiens, UniProt P49354+P49356).
T1 construct: grown as monolayer cell cultures were used as a source of human enzyme; endogenous in cells; host or cells: KHOS (Kirsten virus transformed human osteosarcoma) cells, grown as solid tumors in nude mice or as monolayer cultures; 30-50% ammonium sulfate fraction, then Q Fast Flow Sepharose
In words: In vitro assay for inhibition of farnesyl protein transferase (scintillation proximity assay). The format is biochemical. The following applies: concentration producing 50% inhibition of enzyme activity; [3H]-farnesylpyrophosphate and biotinylated lamin B peptide substrates, 60 min at 37° C. Here is the method: Human farnesyl protein transferase was prepared essentially as described (Y. Reiss et al., Methods: A Companion to Methods in Enzymology vol 1, 241-245, 1990). Kirsten virus transformed human osteosarcoma (KHOS) cells (American Type Culture Collection, Rockville, Md., USA) grown as solid tumors in nude mice or grown as monolayer cell cultures were used as a source of human enzyme. Briefly, cells or tumors were homogenized in buffer containing 50 mM Tris, 1 mM EDTA, 1 mM EGTA and 0.2 mM phenylmethylsulfonylfluoride (pH 7.5). The homogenates were centrifuged 28,000×g for 60 min and the supernatants collected. A 30-50% ammonium sulfate fraction was prepared, and the resulting precipitate was resuspended in a small (10 to 20 ml) volume of dialysis buffer containing 20 mM Tris 1 mM dithiothreitol and 20 μM ZnCl2. The ammonium sulfate fraction was dialyzed overnight against two changes of the same buffer. The dialyzed material was applied to a 10×1 cm Q Fast Flow Sepharose (Pharmacia LKB Biotechnology Inc., Piscataway, N.J., USA) which had been preequilibrated with 100 ml of dialysis buffer supplemented with 0.05 M NaCl. The column was washed with an additional 50 ml of dialysis buffer plus 0.05 M NaCl followed by a gradient from 0.05 M to 0.25 M NaCl prepared in dialysis buffer. The enzyme activity was eluted with a linear gradient of 0.25 to 1.0 M NaCl prepared in the dialysis buffer. Fractions containing 4 to 5 ml volumes of column eluate were collected and analyzed for farnesyl protein transferase activity. Fractions with enzyme activity were pooled and supplemented with 100 μM ZnCl2. Enzyme samples were stored frozen at −70° C.
The activity of farnesyl protein transferase was measured using the Farnesyl Transferase [^3H] Scintillation Proximity Assay (Amersham International plc., England) under the conditions specified by the manufacturer. To assay for inhibitors of the enzyme, 0.20 μCi of the [^3H]-famesylpyrophosphate substrate and the biotinylated lamin B peptide substrate (biotin-YRASNRSCAIM) were mixed with test compounds in a reaction buffer consisting of 50 mM HEPES, 30 mM MgCl2, 20 mM KCl, 5 mM dithiothreitol, 0.01% Triton X-100. Test compounds were delivered in a 10 μl volume of dimethylsulfoxide (DMSO) to achieve concentrations of 1 and 10 μg/ml in a final volume of 100 μl. The reaction mixture was warmed to 37° C. The enzyme reaction was started by adding 20 μl of diluted human farnesyl protein transferase. Sufficient enzyme preparation was added to produce between 4000 to 15000 cpm of reaction product during the 60 min of reaction incubation at 37° C. Reactions were terminated by the addition of STOP/scintillation proximity bead reagent (Amersham). The reaction product [^3H]-farnesyl-(Cys)-biotin lamin B peptide was captured on the streptavidin linked scintillation proximity bead. The amount of [^3H]-farnesyl-(Cys)-biotin lamin B peptide synthesized in the presence or absence of test compounds was quantified as cpm by counting on a Wallac Model 1480 Microbeta Liquid Scintillation Counter. The cpm of product was considered to be farnesyl protein transferase activity. The protein farnesyl transferase activity observed in the presence of test compound was normalized to farnesyl transferase activity in the presence of 10% DMSO and expressed as per cent inhibition. […] The effects of test compounds in these studies were calculated as IC50 (concentration of test compound producing 50% inhibition of enzyme activity) using the LGICV50 computer program written by the Science Information Division of R. W. Johnson Pharmaceutical Research Institute (Spring House, Pa., USA) on a VAX computer.
Background: SPA uses beads or plates that emit light when radiolabelled molecules are held near them.

The subject of experiment [2] is NIH 3T3 cells transformed by the T24 activated human H-ras gene. Kind of experiment: Ras-transformed cell phenotype reversion assay. The format is cell-based, mouse. The following applies: NIH3T3; cell counts after 72 hours proliferation, corrected for initial input of 200,000 cells. An excerpt: Insertion of activated oncogenes such as the mutant ras gene into mouse NIH 3T3 cells converts the cells to a transformed phenotype. The cells become tumorigenic, display anchorage independent growth in semi-solid medium and lose contact inhibition. Loss of contact inhibition produces cell cultures which no longer form uniform monolayers. Rather, the cells pile up into multicellular nodules and grow to very high saturation densities in plastic tissue culture dishes. Agents such as protein farnesyl transferase inhibitors which revert the ras transformed phenotype restore the uniform monolayer growth pattern to cells in culture. This reversion is easily monitored by counting the number of cells in tissue culture plates. Transformed cells will achieve higher cell numbers than cells which have reverted to an untransformed phenotype. Compounds which revert the transformed phenotype should produce antitumor effects in tumors bearing ras gene mutations.
Compounds are screened in tissue culture in NIH 3T3 cells transformed by the T24 activated human H-ras gene. Cells are seeded at an initial density of 200,000 cells per well (9.6 cm^2 surface area) in six-well cluster tissue culture plates. Test compounds are immediately added to 3.0 ml cell growth medium in a 3.0 μl volume of DMSO, with a final concentration of DMSO in the cell growth medium of 0.1%. The test compounds are run at concentrations of 5, 10, 50, 100, and 500 nM along with a DMSO treated vehicle control. (In case a high activity is observed at 5 nM, the test compound is tested at even lower concentrations.) The cells are allowed to proliferate for 72 hours. Then the cells are detached in 1.0 ml trypsin-EDTA cell dissociation medium and counted on a Coulter particle counter.
Cell numbers expressed as cells per well are measured using a Coulter Particle Counter.
All cell counts were corrected for the initial cell input density by subtracting 200,000.
Control cell counts=[cell counts from cells incubated with DMSO vehicle −200,000].
Test compound cell counts=[cell counts from cells incubated with test compound −200,000]. [formula]
IC50 (i.e. the test compound concentration required to inhibit enzyme activity by 50%) is calculated if sufficient data are available, summarized in table 11.

Experiment [3] has as its system T24 activated human H-ras gene transformed NIH 3T3 fibroblast cells (T24 cells). In words: Farnesyl protein transferase inhibitor secondary tumor model. The format is in vivo. The settings on record: nude mice with subcutaneous T24 cell tumors, 15 days of treatment. An excerpt:
The enzyme farnesyl protein transferase catalyzes the covalent attachment of a farnesyl moiety derived from farnesyl pyrophosphate to the oncogene product p21^ras. This directs p21^ras to attach to plasma membranes. Once attached to plasma membranes, mutant or oncogenic forms of p21^ras will provide a signal for the transformation and uncontrolled growth of malignant tumor cells. Therefore, inhibitors of protein farnesyl transferase will prevent the membrane attachment of p21^ras and inhibit growth of ras-transformed tumors.
Nude mice are inoculated with 1×10^6 of T24 activated human H-ras gene transformed NIH 3T3 fibroblast cells (T24 cells), subcutaneously in the inguinal region. After three days to allow tumors to become established, treatment with test compounds is begun via the oral route. The test compounds are dissolved in a 20% β-cyclodextrin in 0.1 N HCl solution and administered orally as 0.1 ml of compound solution per 10 g mouse body weight. Routinely used doses are 6.25, 12.5 and 25 mg/kg. Body weights and tumor sizes are monitored during the ensuing 15 days of treatment. At the end of treatment, animals are sacrificed and tumors are weighed.
The “mean vehicle treated tumor weight” is defined as the mean tumor weight from 10 to 15 mice […].
The “mean tumor weight” is defined as the mean tumor weight from 10 to 15 mice […]. [formula]

Turning to `CCOc1cccc(-c2cc(=O)n(C)c3ccc(C(c4ccc(Cl)cc4)c4cncn4C)cc23)c1` (stereo not drawn) [Compound 35, 6-[(4-chlorophenyl)(1-methyl-1H-imidazol-5-yl)methyl]-4-(3-ethoxyphenyl)-1-methyl-2(1H)-quinolinone monohydrochloride.monohydrate], the figures for the concentration for half-maximal inhibition (IC50) in experiment [1] and in experiment [2] were 0.39 nM and 3.4 nM, respectively. The “% reduction final tumor weight at a dose of 25 mg/kg bid, po” value in experiment [3] stood at 39%.
In the same order, the values of `CCOc1cccc(-c2cc(=O)n(C)c3ccc(C(O)(c4ccc(Cl)cc4)c4cncn4C)cc23)c1` (stereo not drawn) [Compound 34, 6-[(4-chlorophenyl)hydroxy(1-methyl-1H-imidazol-5-yl)methyl]-4-(3-ethoxyphenyl)-1-methyl-2(1H)-quinolinone] are 1.6 nM, 3 nM and 56%.
